Reference: the NIST ThermoML archive (doi:10.1016/j.fluid.2015.08.029)

Assay: xn = mol fraction of the nth substance listed
Details: Buoyancy - hydrostatic balance with magnetic suspension - one sinker, x2 = 0.95

C [methane] + O=C=O
Details | mass density [kg/m3]
300.07 K, 7972.2 kPa, Fluid (supercritical or subcritical phases) | 556.595
300.14 K, 8371 kPa, Fluid (supercritical or subcritical phases) | 616.06
300.14 K, 8570.3 kPa, Fluid (supercritical or subcritical phases) | 633.917
300.15 K, 8770.2 kPa, Fluid (supercritical or subcritical phases) | 648.153
300.15 K, 8969.4 kPa, Fluid (supercritical or subcritical phases) | 660.072
300.15 K, 9169.7 kPa, Fluid (supercritical or subcritical phases) | 670.371
300.15 K, 9370.4 kPa, Fluid (supercritical or subcritical phases) | 679.432
300.15 K, 9569.6 kPa, Fluid (supercritical or subcritical phases) | 687.435
300.15 K, 9968.4 kPa, Fluid (supercritical or subcritical phases) | 701.498
300.16 K, 9768.4 kPa, Fluid (supercritical or subcritical phases) | 694.681
300.17 K, 8169.8 kPa, Fluid (supercritical or subcritical phases) | 590.047
301.07 K, 7972.4 kPa, Fluid (supercritical or subcritical phases) | 491.013
301.08 K, 7573.6 kPa, Liquid | 317.651
301.11 K, 7972.7 kPa, Liquid | 489.743
301.11 K, 8970.7 kPa, Liquid | 641.991
301.13 K, 6976 kPa, Gas | 227.803
301.13 K, 7872.3 kPa, Liquid | 446.609
301.14 K, 4003.5 kPa, Gas | 86.6567
301.14 K, 5978.2 kPa, Gas | 160.13
301.14 K, 7972.1 kPa, Liquid | 486.831
301.14 K, 8170.1 kPa, Liquid | 548.746
301.14 K, 8371.5 kPa, Fluid (supercritical or subcritical phases) | 585.039
301.14 K, 8570.7 kPa, Fluid (supercritical or subcritical phases) | 609.188
301.14 K, 9969.4 kPa, Liquid | 689.045
301.14 K, 10967 kPa, Liquid | 718.917
301.14 K, 11966 kPa, Liquid | 741.154
301.15 K, 1990.5 kPa, Gas | 37.5288
301.15 K, 2980.5 kPa, Gas | 59.7905
301.15 K, 4979.8 kPa, Gas | 117.931
301.15 K, 7772.9 kPa, Liquid | 394.053
301.15 K, 8071.6 kPa, Liquid | 522.073
301.15 K, 8271.7 kPa, Liquid | 569.213
301.15 K, 8770.5 kPa, Fluid (supercritical or subcritical phases) | 627.154
301.15 K, 8970.7 kPa, Fluid (supercritical or subcritical phases) | 641.721
301.15 K, 9370.6 kPa, Fluid (supercritical or subcritical phases) | 664.364
301.15 K, 9568.5 kPa, Fluid (supercritical or subcritical phases) | 673.475
301.15 K, 9768.6 kPa, Fluid (supercritical or subcritical phases) | 681.815
301.15 K, 9968.2 kPa, Fluid (supercritical or subcritical phases) | 689.247
301.16 K, 7673.5 kPa, Liquid | 347.909
301.16 K, 9169.7 kPa, Fluid (supercritical or subcritical phases) | 653.715
301.17 K, 8170.5 kPa, Fluid (supercritical or subcritical phases) | 547.088
302.07 K, 7971.5 kPa, Fluid (supercritical or subcritical phases) | 416.856
302.09 K, 7574.3 kPa, Liquid | 293.998
302.14 K, 7873.7 kPa, Liquid | 376.389
302.14 K, 8073.1 kPa, Liquid | 455.2
302.14 K, 8171.5 kPa, Liquid | 491.43
302.14 K, 8273.3 kPa, Liquid | 521.984
302.15 K, 7774.4 kPa, Liquid | 340.924
302.15 K, 7973.5 kPa, Liquid | 414.824
302.15 K, 8570 kPa, Fluid (supercritical or subcritical phases) | 578.598
302.15 K, 8769.9 kPa, Fluid (supercritical or subcritical phases) | 602.454
302.15 K, 8969.1 kPa, Fluid (supercritical or subcritical phases) | 620.555
302.15 K, 9168.8 kPa, Fluid (supercritical or subcritical phases) | 635.22
302.15 K, 9369 kPa, Fluid (supercritical or subcritical phases) | 647.538
302.16 K, 7674.4 kPa, Liquid | 312.96
302.16 K, 8169.9 kPa, Fluid (supercritical or subcritical phases) | 489.715
302.16 K, 8371.1 kPa, Fluid (supercritical or subcritical phases) | 543.85
302.16 K, 9568.3 kPa, Fluid (supercritical or subcritical phases) | 658.091
302.16 K, 9768.3 kPa, Fluid (supercritical or subcritical phases) | 667.497
302.16 K, 9970.6 kPa, Fluid (supercritical or subcritical phases) | 676.016
303.08 K, 7971 kPa, Fluid (supercritical or subcritical phases) | 368.276
303.15 K, 8169 kPa, Fluid (supercritical or subcritical phases) | 434.951
303.15 K, 8369.8 kPa, Fluid (supercritical or subcritical phases) | 500.535
303.15 K, 8569.4 kPa, Fluid (supercritical or subcritical phases) | 546.267
303.15 K, 8770.2 kPa, Fluid (supercritical or subcritical phases) | 577.054
303.16 K, 9168.7 kPa, Fluid (supercritical or subcritical phases) | 616.875
303.16 K, 9368.4 kPa, Fluid (supercritical or subcritical phases) | 631.164
303.16 K, 9567.7 kPa, Fluid (supercritical or subcritical phases) | 643.384
303.16 K, 9967.1 kPa, Fluid (supercritical or subcritical phases) | 663.476
303.17 K, 8969.3 kPa, Fluid (supercritical or subcritical phases) | 598.947
303.17 K, 9768 kPa, Fluid (supercritical or subcritical phases) | 653.938
304.1 K, 7971.1 kPa, Fluid (supercritical or subcritical phases) | 329.354
304.14 K, 8569.2 kPa, Fluid (supercritical or subcritical phases) | 496.33
304.14 K, 8968.4 kPa, Fluid (supercritical or subcritical phases) | 567.739
304.15 K, 8769.3 kPa, Fluid (supercritical or subcritical phases) | 537.629
304.15 K, 9169.5 kPa, Fluid (supercritical or subcritical phases) | 590.204
304.15 K, 9567.9 kPa, Fluid (supercritical or subcritical phases) | 622.735
304.16 K, 8171.5 kPa, Fluid (supercritical or subcritical phases) | 378.227
304.16 K, 9973.8 kPa, Fluid (supercritical or subcritical phases) | 646.365
304.17 K, 8370 kPa, Fluid (supercritical or subcritical phases) | 438.794
304.17 K, 9370.7 kPa, Fluid (supercritical or subcritical phases) | 607.811
304.17 K, 9767.3 kPa, Fluid (supercritical or subcritical phases) | 634.947
305.11 K, 7971.7 kPa, Fluid (supercritical or subcritical phases) | 307.661
305.15 K, 8371 kPa, Fluid (supercritical or subcritical phases) | 394.247
305.15 K, 8569.8 kPa, Fluid (supercritical or subcritical phases) | 449.045
305.15 K, 8769.4 kPa, Fluid (supercritical or subcritical phases) | 497.809
305.15 K, 8968.6 kPa, Fluid (supercritical or subcritical phases) | 535.323
305.15 K, 9168.3 kPa, Fluid (supercritical or subcritical phases) | 563.28
305.15 K, 9568.1 kPa, Fluid (supercritical or subcritical phases) | 602.629
305.16 K, 8169.9 kPa, Fluid (supercritical or subcritical phases) | 344.406
